Measured values: ChEMBL document CHEMBL3885881, “DrugMatrix”

Organism: Rattus norvegicus
Experiment: DrugMatrix - Regimen: Daily Repeat
Type: toxicity, organism-based, Sprague-Dawley
Parameters: regimen Daily Repeat, gender Male, age 6-8 weeks
Details: in vivo, po, route oral GAVAGE, vehicle 100 % WATER; for ABSOLUTE BASOPHIL / ABSOLUTE EOSINOPHIL / ABSOLUTE LYMPHOCYTE / ABSOLUTE MONOCYTE / ABSOLUTE SEGMENTED NEUTROPHIL / BASOPHIL / EOSINOPHIL / ERYTHROCYTE COUNT / HEMATOCRIT / HEMOGLOBIN / LEUKOCYTE COUNT / LYMPHOCYTE / MEAN CORPUSCULAR HEMOGLOBIN / MEAN CORPUSCULAR HEMOGLOBIN CONCENTRATION / MONOCYTE / NEUTROPHIL / NUCLEATED RED BLOOD CELLS / PLATELET COUNT: tissue Blood; for ALANINE AMINOTRANSFERASE / ALBUMIN / ALKALINE PHOSPHATASE / ASPARTATE AMINOTRANSFERASE / BLOOD UREA NITROGEN / CARBON DIOXIDE / CHLORIDE / CHOLESTEROL / CREATINE PHOSPHOKINASE / CREATININE / GLUCOSE / LACTATE DEHYDROGENASE / LIPASE / PHOSPHORUS / POTASSIUM / SODIUM / TOTAL BILIRUBIN / TOTAL PROTEIN / URIC ACID: tissue Plasma
[1] = 0 mg/kg, 72 h, dose level Control, time 3 day
[2] = 0 mg/kg, 120 h, dose level Control, time 5 day
[3] = 50 mg/kg, 72 h, dose level Low, time 3 day

Structure (SMILES): C[C@H](CS)C(=O)N1CCC[C@H]1C(=O)O [CAPTOPRIL]
- ABSOLUTE BASOPHIL [1]: 0 CELLS/uL
- ABSOLUTE EOSINOPHIL [1]: 0 CELLS/uL
- ABSOLUTE LYMPHOCYTE [1]: 10386.33 CELLS/uL
- ABSOLUTE MONOCYTE [1]: 88.5 CELLS/uL
- ABSOLUTE SEGMENTED NEUTROPHIL [1]: 1008.5 CELLS/uL
- BASOPHIL [1]: 0%
- EOSINOPHIL [1]: 0%
- ERYTHROCYTE COUNT [1]: 5.16 x10E6/uL
- HEMATOCRIT [1]: 32.43%
- HEMOGLOBIN [1]: 12.98 G/DL
- LEUKOCYTE COUNT [1]: 11.48 x10E3/uL
- LYMPHOCYTE [1]: 92.33%
- MEAN CORPUSCULAR HEMOGLOBIN [1]: 25.23 pg
- MEAN CORPUSCULAR HEMOGLOBIN CONCENTRATION [1]: 40.08 G/DL
- MONOCYTE [1]: 0.67%
- NEUTROPHIL [1]: 7%
- NUCLEATED RED BLOOD CELLS [1]: 0 /100WBC
- PLATELET COUNT [1]: 1016.67 x10E3/uL
- ALANINE AMINOTRANSFERASE [1]: 62.17 u/L
- ALBUMIN [1]: 3.95 G/DL
- ALKALINE PHOSPHATASE [1]: 363.5 u/L
- ASPARTATE AMINOTRANSFERASE [1]: 118 u/L
- BLOOD UREA NITROGEN [1]: 14.5 mg/dL
- CARBON DIOXIDE [1]: 22.83 mmol/L
- CHLORIDE [1]: 100.67 MEQ/L
- CHOLESTEROL [1]: 66 mg/dL
- CREATINE PHOSPHOKINASE [1]: 1308.83 u/L
- CREATININE [1]: 0.22 mg/dL
- GLUCOSE [1]: 187.5 mg/dL
- LACTATE DEHYDROGENASE [1]: 380.17 u/L
- LIPASE [1]: 16.17 u/L
- PHOSPHORUS [1]: 14.27 mg/dL
- POTASSIUM [1]: 6.8 MEQ/L
- SODIUM [1]: 142.53 MEQ/L
- TOTAL BILIRUBIN [1]: 0.2 mg/dL
- TOTAL PROTEIN [1]: 5.68 G/DL
- URIC ACID [1]: 2.87 mg/dL
- ABSOLUTE BASOPHIL [2]: 0 CELLS/uL
- ABSOLUTE EOSINOPHIL [2]: 80 CELLS/uL
- ABSOLUTE LYMPHOCYTE [2]: 13301.33 CELLS/uL
- ABSOLUTE MONOCYTE [2]: 180.83 CELLS/uL
- ABSOLUTE SEGMENTED NEUTROPHIL [2]: 1187.83 CELLS/uL
- BASOPHIL [2]: 0%
- EOSINOPHIL [2]: 0.5%
- ERYTHROCYTE COUNT [2]: 5.54 x10E6/uL
- HEMATOCRIT [2]: 35.65%
- HEMOGLOBIN [2]: 14.22 G/DL
- LEUKOCYTE COUNT [2]: 14.75 x10E3/uL
- LYMPHOCYTE [2]: 90.67%
- MEAN CORPUSCULAR HEMOGLOBIN [2]: 25.65 pg
- MEAN CORPUSCULAR HEMOGLOBIN CONCENTRATION [2]: 39.88 G/DL
- MONOCYTE [2]: 1%
- NEUTROPHIL [2]: 7.83%
- NUCLEATED RED BLOOD CELLS [2]: 0.17 /100WBC
- PLATELET COUNT [2]: 1285.33 x10E3/uL
- ALANINE AMINOTRANSFERASE [2]: 51.67 u/L
- ALBUMIN [2]: 4.08 G/DL
- ALKALINE PHOSPHATASE [2]: 391.5 u/L
- ASPARTATE AMINOTRANSFERASE [2]: 99.5 u/L
- BLOOD UREA NITROGEN [2]: 15.5 mg/dL
- CARBON DIOXIDE [2]: 28.33 mmol/L
- CHLORIDE [2]: 101.83 MEQ/L
- CHOLESTEROL [2]: 67.83 mg/dL
- CREATINE PHOSPHOKINASE [2]: 771.33 u/L
- CREATININE [2]: 0.23 mg/dL
- GLUCOSE [2]: 156.5 mg/dL
- LACTATE DEHYDROGENASE [2]: 544.33 u/L
- LIPASE [2]: 10.17 u/L
- PHOSPHORUS [2]: 12.03 mg/dL
- POTASSIUM [2]: 6.81 MEQ/L
- SODIUM [2]: 144.13 MEQ/L
- TOTAL BILIRUBIN [2]: 0.22 mg/dL
- TOTAL PROTEIN [2]: 6 G/DL
- URIC ACID [2]: 2.18 mg/dL
- ABSOLUTE BASOPHIL [3]: 0 CELLS/uL
- ABSOLUTE EOSINOPHIL [3]: 0 CELLS/uL
- ABSOLUTE LYMPHOCYTE [3]: 12527.33 CELLS/uL
- ABSOLUTE MONOCYTE [3]: 193.67 CELLS/uL
- ABSOLUTE SEGMENTED NEUTROPHIL [3]: 645.67 CELLS/uL
- BASOPHIL [3]: 0%
- EOSINOPHIL [3]: 0%
- ERYTHROCYTE COUNT [3]: 5.11 x10E6/uL
- HEMATOCRIT [3]: 32.47%
- HEMOGLOBIN [3]: 12.77 G/DL
- LEUKOCYTE COUNT [3]: 13.37 x10E3/uL
- LYMPHOCYTE [3]: 93.67%
- MEAN CORPUSCULAR HEMOGLOBIN [3]: 25 pg
- MEAN CORPUSCULAR HEMOGLOBIN CONCENTRATION [3]: 39.33 G/DL
- MONOCYTE [3]: 1.33%
- NEUTROPHIL [3]: 5%
- NUCLEATED RED BLOOD CELLS [3]: 0 /100WBC
- PLATELET COUNT [3]: 1185.33 x10E3/uL
- ALANINE AMINOTRANSFERASE [3]: 55.33 u/L
- ALBUMIN [3]: 4.23 G/DL
- ALKALINE PHOSPHATASE [3]: 396.33 u/L
- ASPARTATE AMINOTRANSFERASE [3]: 89.33 u/L
- BLOOD UREA NITROGEN [3]: 15.33 mg/dL
- CARBON DIOXIDE [3]: 24.67 mmol/L
- CHLORIDE [3]: 99.67 MEQ/L
- CHOLESTEROL [3]: 77.67 mg/dL
- CREATINE PHOSPHOKINASE [3]: 344.67 u/L
- CREATININE [3]: 0.22 mg/dL
- GLUCOSE [3]: 154.67 mg/dL
- LACTATE DEHYDROGENASE [3]: 230.67 u/L
- LIPASE [3]: 11.67 u/L
- PHOSPHORUS [3]: 12.57 mg/dL
- POTASSIUM [3]: 6.98 MEQ/L
- SODIUM [3]: 141.83 MEQ/L
- TOTAL BILIRUBIN [3]: 0.2 mg/dL
- TOTAL PROTEIN [3]: 5.87 G/DL
